Target: human RIP1 kinase domain (2-375) (Homo sapiens (Human), UniProt Q13546)
Assay: RIP1 kinase inhibition biochemical assay (Transcreener ADP, fluorescence polarization)
Conditions: Ki app from tight-binding Morrison equation; 50 nM enzyme, 50 uM ATP, 2 hours incubation
Outline: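 Baculovirus-expressed human RIP1 kinase domain (2-375), 50 nM, incubated 2 h with compounds in pH 7.5 Hepes, 30 mM MgCl2, 50 uM ATP, 0.5% DMSO. ADP detected by Transcreener fluorescence-polarization tracer displacement; Ki^app from Morrison tight-binding fit.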

Chain of human RIP1 kinase domain (2-375) (Q13546 2-375): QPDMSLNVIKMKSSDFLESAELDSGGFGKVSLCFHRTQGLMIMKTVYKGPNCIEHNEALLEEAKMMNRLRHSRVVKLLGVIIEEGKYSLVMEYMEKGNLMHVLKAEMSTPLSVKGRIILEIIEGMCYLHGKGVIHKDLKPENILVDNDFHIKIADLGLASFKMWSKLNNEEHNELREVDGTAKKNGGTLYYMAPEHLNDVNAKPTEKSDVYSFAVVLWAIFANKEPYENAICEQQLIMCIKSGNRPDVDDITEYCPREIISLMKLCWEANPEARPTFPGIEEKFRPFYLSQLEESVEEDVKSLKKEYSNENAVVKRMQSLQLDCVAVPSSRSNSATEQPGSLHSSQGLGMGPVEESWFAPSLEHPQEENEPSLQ

SMILES | Ki [nM]
O=S(=O)(c1nc2n(n1)[C@H](c1ccccc1)C[C@@H]2F)[C@H]1C[C@@H](CO)C1 (single isomer, unassigned) [Example 168] | 530
O=S(=O)(c1cc2n(n1)[C@H](c1ccccc1)C[C@@H]2F)C1CC1 [Example 31, (4S,6S)-2-cyclopropylsulfonyl-4-fluoro-6-phenyl-5,6-dihydro-4H-pyrrolo[1,2-b]pyrazole] | 10
O=S(=O)(c1nc2n(n1)[C@H](c1c(F)cccc1F)C[C@@H]2F)C1CC1(F)F (stereo partly drawn) [Example 123, (5S,7S)-2-(2,2-difluorocyclopropyl)sulfonyl-5-(2,6-difluorophenyl)-7-fluoro-6,7-dihydro-5H-pyrrolo[1,2-b][1,2,4]triazole] | < 5
O=S(=O)(c1nc2n(n1)C(c1ccccc1)CC2)C(F)(F)c1ccccc1 (racemic) [Example 4, 2-[difluoro(phenyl)methyl]sulfonyl-5-phenyl-6,7-dihydro-5H-pyrrolo[1,2-b][1,2,4]triazole] | 152
O=S(=O)(c1ccccc1)c1nc2n(n1)[C@H](c1ccccc1)C[C@@H]2F (single isomer, unassigned) [Example 26] | 3200
N#CCS(=O)(=O)c1cc2n(n1)[C@H](c1ccccc1)C[C@@H]2F (single isomer, unassigned) [Example 90] | 8
O=S(=O)(CC(F)(F)F)c1nc2n(n1)[C@H](c1ccccc1)C[C@@H]2F (single isomer, unassigned) [Example 114] | 71
C[C@@H](F)S(=O)(=O)c1nc2n(n1)[C@H](c1ccccc1)C[C@@H]2F (single isomer, unassigned) [Example 159] | 15
[O-][S@@+](CC(F)(F)F)c1nc2n(n1)[C@H](c1ccccc1)C[C@@H]2F (single isomer, unassigned) [Example 183] | 4
O=S(=O)(c1nc2n(n1)[C@H](c1ccccc1)C[C@@H]2F)[C@H]1CCC1(F)F [Example 172, (5S,7S)-7-fluoro-5-phenyl-2-[(1S)-2,2-difluorocyclobutyl]sulfonyl-6,7-dihydro-5H-pyrrolo[1,2-b][1,2,4]triazole] | 6
O=S(=O)(c1nc2n(n1)[C@H](c1ccccc1)C[C@@H]2F)C1CC(F)(F)C1 (single isomer, unassigned) [Example 50] | 17

— patent US11072617B2, “Bicyclic sulfones and sulfoxides and methods of use thereof” (Genentech, Inc., priority 2017, dated 2021)
